For data set [1], the target named is T1, Human Ghrelin Receptor (GHS-R 1A) (Homo sapiens (Human), UniProt Q92847). Description: CRE/Luc reporter gene assay, antagonist. The format is cell-based. As to conditions: 6 h, 1 μM rolipram. The text has this:
(§1) Mouse LTK-cells (ATCC CCL-1.3) were stably transfected with a plasmid containing the CMV minimal promoter (CMVmin) linked to three cAMP response elements (CRE) followed by a luciferase reporter gene. Based on this parental cell line, single cell clones stably overexpressing the human, rat or mouse GHS-R 1A have been established and characterized with respect to suitability for the different assay formats.
For the CRE/Luc reporter gene assay, the mouse LTK-cells stably expressing the human GHS-1RA and a luciferase reporter gene under the control of CRE elements and the CMV minimal promoter were incubated for 6 h with 1 μM rolipram in the presence of different concentrations of AEZS-130. Subsequently, cells were lysed and ATP bioluminescence was measured in the luminescence mode on FlexStation3 (Molecular Devices).
(§2) IC50 values were determined by using the GraphPad Prism analysis program (GraphPad Software).
(§3) Values given are either single measurements or mean values of up to nine independent experiments performed in duplicate (binding) or quadruplicate (functional assays) measurements.
In general terms: Reporter assays use an easily measured gene product as a stand-in for the process of interest.

Data set [2] addresses T1, Human Ghrelin Receptor (GHS-R 1A). Description: Calcium release, antagonist. Format: cell-based. As to conditions: 15 minutes preincubation, then ghrelin.
Text: as §1
(§4) For determination of calcium release the respective cell line was loaded with Fluo-4 NW Calcium Assay Kit (Moleculare Probes/Invitrogen # F10741) for 80 min @ 37° C. After 15 minutes of preincubation with different concentrations of the test compounds ghrelin was added and the signal was monitored for 60 seconds by a FlexStation3 microplate reader (Molecular Devices).
as §2, §3

Data set [3] deals with MDR-1 (P-glycoprotein, Pgp) (Homo sapiens (Human), UniProt P08183). Description: Inhibition of MDR1 ATPase (Pgp-Glo assay, SF9 membrane preparations). Format: biochemical. As for the experimental part: For detection of MDR-1 (P-glycoprotein, Pgp) ATPase activity commercially available membrane preparations of MDR-1 overexpressing SF9 insect cells (SB-MDR1-Sf9-ATPase Membrane; 2.5 mg/500 μL; Solvo/tebu-bio #168SB-MDR1-Sf9-ATPase) were used. Since transport by MDR-1 is ATP-dependent, ATP consumption indicates transport activity of MDR-1. ATP consumption is detected as a decrease in luminescence from a second reaction with a recombinant firefly luciferase by using the Pgp-Glo™ Assay Kit (Promega # V3591).
MDR-1 (P-glycoprotein, Pgp), sequence (P08183 whole entry): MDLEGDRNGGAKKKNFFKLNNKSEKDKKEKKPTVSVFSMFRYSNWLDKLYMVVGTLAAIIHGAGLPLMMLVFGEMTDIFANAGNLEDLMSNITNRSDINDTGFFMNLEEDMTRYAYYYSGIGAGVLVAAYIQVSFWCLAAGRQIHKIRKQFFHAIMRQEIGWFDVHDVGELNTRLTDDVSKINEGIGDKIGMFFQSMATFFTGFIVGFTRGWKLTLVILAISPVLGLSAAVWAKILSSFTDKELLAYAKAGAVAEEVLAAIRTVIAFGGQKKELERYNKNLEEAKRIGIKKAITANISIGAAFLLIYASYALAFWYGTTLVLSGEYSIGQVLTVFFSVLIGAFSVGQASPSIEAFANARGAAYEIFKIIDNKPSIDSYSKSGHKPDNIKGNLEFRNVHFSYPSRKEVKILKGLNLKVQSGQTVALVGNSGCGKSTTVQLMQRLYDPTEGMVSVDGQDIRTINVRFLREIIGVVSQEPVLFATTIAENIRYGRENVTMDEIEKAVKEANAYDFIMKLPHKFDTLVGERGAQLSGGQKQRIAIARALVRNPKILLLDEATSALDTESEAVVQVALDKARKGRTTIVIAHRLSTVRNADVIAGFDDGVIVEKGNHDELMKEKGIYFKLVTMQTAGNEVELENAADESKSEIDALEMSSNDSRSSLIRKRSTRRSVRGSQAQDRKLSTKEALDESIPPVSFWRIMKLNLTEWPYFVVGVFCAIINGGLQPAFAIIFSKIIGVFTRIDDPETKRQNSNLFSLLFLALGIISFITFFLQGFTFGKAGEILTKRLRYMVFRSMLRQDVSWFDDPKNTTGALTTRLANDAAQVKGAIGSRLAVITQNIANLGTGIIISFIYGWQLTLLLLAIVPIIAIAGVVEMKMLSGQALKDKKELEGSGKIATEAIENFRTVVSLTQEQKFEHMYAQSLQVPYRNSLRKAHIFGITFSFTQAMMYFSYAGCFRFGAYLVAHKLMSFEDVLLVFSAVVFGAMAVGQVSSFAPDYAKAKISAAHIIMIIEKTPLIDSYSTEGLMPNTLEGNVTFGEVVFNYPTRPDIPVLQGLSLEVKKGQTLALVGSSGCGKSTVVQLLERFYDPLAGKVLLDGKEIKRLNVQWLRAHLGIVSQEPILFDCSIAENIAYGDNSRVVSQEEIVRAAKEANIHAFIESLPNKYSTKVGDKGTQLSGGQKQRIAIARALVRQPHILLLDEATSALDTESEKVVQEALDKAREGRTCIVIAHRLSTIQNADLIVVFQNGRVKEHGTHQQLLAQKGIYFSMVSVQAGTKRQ

Data set [4] concerns the target T1, Human Ghrelin Receptor (GHS-R 1A). Description: Competitive binding, iodinated ghrelin tracer, intact LTK-cells overexpressing GHS-R 1A. The conditions noted are these: 60 min at 37° C.
Text: as §1
For receptor competitive binding studies, iodinated ghrelin was used as a tracer at conditions of about 80% saturation binding. Different concentrations of the test compounds were analyzed for displacement of the tracer. For this purpose, the suspension of intact cells plus tracer mix and different test compound concentrations was layered on top of silicon/paraffin oil, incubated for 60 min at 37° C. and subjected to centrifugation. After freezing in liquid nitrogen the cell pellets were separated from the supernatant by cutting the tubes in the intermediate silicon/paraffin oil section and analyzed by γ-radiation analysis. The amount of unspecific binding was determined by including unlabeled ghrelin at 1 μM final concentration.
as §2, §3

Data set [5] is described as follows: Stability in liver microsomes. Format: in vitro ADME, rat. The conditions noted are these: @37° C./1 mg/ml Liver Microsomes, 10 μM. As for the experimental part:
Metabolic stability in liver microsomes of different species (in the presence of NADPH, 1 mg/ml microsomal protein) was evaluated at 37° C. over time in triplicates at a test concentration of 10 μM. Loss of parent compound is measured by an HPLC-based UV detection method. For prediction of rat hepatic clearance half-lives (t1/2) were fitted from first-order rate constant k (min^−1) obtained from the slope of time versus In % remaining.
A general note: Liver microsomes are a subcellular fraction often used to study metabolism.

Data set [6] has as its target hERG channel (Homo sapiens (Human), UniProt Q12809). The experiment in a line: Predictor hERG Fluorescence Polarization Assay. The format is binding. An excerpt:
The Predictor™ hERG Fluorescence Polarization Assay (Invitrogen, Karlsruhe, GER) determines whether test compounds block the hERG channel [Piper, D. R. et al., Assay Drug Dev Technol. 2008, 6(2):213-23]. The assay uses a membrane fraction containing hERG channel protein (Predictor™ hERG Membrane) and a high-affinity red fluorescent hERG channel ligand, or “tracer” (Predictor™ hERG Tracer Red), in a homogenous, fluorescence polarization (FP)-based format. Compounds that bind to the hERG channel protein (competitors) are identified by their ability to displace the tracer, resulting in a lower fluorescence polarization. The assay was performed according to guidelines of the manufacturer

A short description of data set [7]: CaCo-2 permeability assay. The format is in vitro ADME. The conditions noted are these: human; for Papp A→B at 2 h: a to b, read-out: CaCo-2 Assay Papp ab; for Papp A→B at 2 h / Papp B→A at 2 h: 3 or 5 μM, 2 hours at 37° C.; for Papp B→A at 2 h: b to a, read-out: CaCo-2 Assay Papp ba; for efflux ratio at 2 h: read-out: CaCo-2 Assay ba/ab. As for the experimental part: For the CaCo-2 permeability assay 80.000 CaCo-2 cells (ATCC HTB-37) were seeded in DMEM supplemented with 10% FCS, 1% Penicillin/Streptomycin and 1% non-essential amino acids per 24 well transwell plate (Corning 3397) and were grown for 21 days by changing the media every second day. On day 21 the medium was replaced by HBSS buffer (Invitrogen #14065) supplemented with 0.25% and 1% BSA for the donor and acceptor compartment, respectively. The compounds were added to the respective donor compartment in a concentration of 3 or 5 μM and were incubated for 2 hours at 37° C. The respective compound concentrations were determined by LC-MS analytics using an API 2000. Data analysis was performed as described by Sun and Pang 2008, Drug Metabolism and Disposition 36, 102-123.
On the technique in general: Caco-2 monolayers are a common model of the intestinal barrier.

Data set [8] concerns the target CYP3A4 (Homo sapiens (Human), UniProt P08684). Description: CYP3A4 inhibition in human liver microsomes, direct and metabolism-dependent. Format: in vitro ADME. As to the method:
Direct and metabolism-dependent inhibition of CYP enzymes are assessed with specific marker substrates by a HPLC-based UV detection method in human liver microsomes. Incubations are carried out as doublets with final concentrations ranging from 0.01 to 200 μM (30 min, 37° C.). Metabolism-dependent inhibition was assessed by incubation for 30 minutes in the presence of NADPH prior to the addition of marker substrate to allow the generation of metabolites. Percent inhibition is plotted against concentration to calculate or extrapolate IC50 values from the sigmoid curve.

Data set [9] concerns the target Mouse Ghrelin Receptor (GHS-R 1A) (Mus musculus (Mouse), UniProt Q99P50). Description: Calcium release, antagonist. Format: cell-based. The conditions noted are these: 15 minutes preincubation, then ghrelin; read-out: Mouse Ghrelin Receptor Antagonist Calcium Release IC50.
Text: as §1, §4, §2
(§5) In the following table 1 results obtained for selected compounds of the invention are presented in comparison to compound 50 disclosed in WO07/020,013. Values given are either single measurements or mean values of up to nine independent experiments performed in duplicate (binding) or quadruplicate (functional assays) measurements.

The target of data set [10] is Rat Ghrelin Receptor (GHS-R 1A) (Rattus norvegicus (Rat), UniProt O08725). Description: Calcium release, antagonist. Format: cell-based. As to conditions: 15 minutes preincubation, then ghrelin; read-out: Rat Ghrelin Receptor Antagonist Calcium Release IC50.
Rat Ghrelin Receptor (GHS-R 1A), sequence (O08725 whole entry): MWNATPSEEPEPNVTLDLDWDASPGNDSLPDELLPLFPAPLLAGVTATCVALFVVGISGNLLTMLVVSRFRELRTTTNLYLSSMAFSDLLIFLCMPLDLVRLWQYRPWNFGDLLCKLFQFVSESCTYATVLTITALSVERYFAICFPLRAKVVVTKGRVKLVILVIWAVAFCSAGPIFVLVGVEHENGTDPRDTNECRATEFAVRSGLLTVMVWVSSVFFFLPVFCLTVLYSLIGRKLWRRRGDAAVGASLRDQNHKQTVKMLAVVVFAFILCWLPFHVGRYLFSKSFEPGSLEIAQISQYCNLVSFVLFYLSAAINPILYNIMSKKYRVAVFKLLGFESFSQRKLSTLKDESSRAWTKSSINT
Text: as §1, §4, §2, §5

[11] abbreviates: marker substrate testosteron, 30 minutes preincubation with NADPH, read-out: CYP3A4 Inhibition Testosteron Preincubation EC50.
The mark [12] stands for this setting: marker substrate testosteron, direct inhibition, human liver microsomes, read-out: CYP3A4 Inhibition Testosteron EC50.

Read-outs that look alike come from different tables or passages of the source.

In general, IC50 refers to the point on the concentration scale where inhibition reaches its midpoint. Broadly, the EC50 is the concentration giving half of the maximal effect.

CYP3A4, sequence (P08684 whole entry): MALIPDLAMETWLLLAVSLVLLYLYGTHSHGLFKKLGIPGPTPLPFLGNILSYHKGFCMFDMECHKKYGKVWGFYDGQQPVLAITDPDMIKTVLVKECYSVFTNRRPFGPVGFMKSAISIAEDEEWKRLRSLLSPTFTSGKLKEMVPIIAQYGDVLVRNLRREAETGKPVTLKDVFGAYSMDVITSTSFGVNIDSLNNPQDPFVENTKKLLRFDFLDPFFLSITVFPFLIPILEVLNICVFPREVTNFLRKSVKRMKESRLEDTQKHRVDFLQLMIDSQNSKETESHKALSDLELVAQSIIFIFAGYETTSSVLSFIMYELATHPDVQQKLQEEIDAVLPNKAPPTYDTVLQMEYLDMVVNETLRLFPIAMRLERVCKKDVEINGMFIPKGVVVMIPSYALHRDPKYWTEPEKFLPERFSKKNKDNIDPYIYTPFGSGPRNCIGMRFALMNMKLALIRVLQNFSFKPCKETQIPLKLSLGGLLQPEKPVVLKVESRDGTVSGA
T1 sequence (Q92847 whole entry): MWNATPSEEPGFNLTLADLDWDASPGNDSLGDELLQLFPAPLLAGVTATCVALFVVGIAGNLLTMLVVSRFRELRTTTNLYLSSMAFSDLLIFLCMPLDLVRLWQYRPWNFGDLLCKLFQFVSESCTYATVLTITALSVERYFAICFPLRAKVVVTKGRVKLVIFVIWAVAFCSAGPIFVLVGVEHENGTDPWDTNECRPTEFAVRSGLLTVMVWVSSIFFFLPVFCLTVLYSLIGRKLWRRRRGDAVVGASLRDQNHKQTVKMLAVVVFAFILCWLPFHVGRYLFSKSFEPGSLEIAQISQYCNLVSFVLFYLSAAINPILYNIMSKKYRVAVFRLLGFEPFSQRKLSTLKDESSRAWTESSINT
hERG channel, sequence (Q12809 whole entry): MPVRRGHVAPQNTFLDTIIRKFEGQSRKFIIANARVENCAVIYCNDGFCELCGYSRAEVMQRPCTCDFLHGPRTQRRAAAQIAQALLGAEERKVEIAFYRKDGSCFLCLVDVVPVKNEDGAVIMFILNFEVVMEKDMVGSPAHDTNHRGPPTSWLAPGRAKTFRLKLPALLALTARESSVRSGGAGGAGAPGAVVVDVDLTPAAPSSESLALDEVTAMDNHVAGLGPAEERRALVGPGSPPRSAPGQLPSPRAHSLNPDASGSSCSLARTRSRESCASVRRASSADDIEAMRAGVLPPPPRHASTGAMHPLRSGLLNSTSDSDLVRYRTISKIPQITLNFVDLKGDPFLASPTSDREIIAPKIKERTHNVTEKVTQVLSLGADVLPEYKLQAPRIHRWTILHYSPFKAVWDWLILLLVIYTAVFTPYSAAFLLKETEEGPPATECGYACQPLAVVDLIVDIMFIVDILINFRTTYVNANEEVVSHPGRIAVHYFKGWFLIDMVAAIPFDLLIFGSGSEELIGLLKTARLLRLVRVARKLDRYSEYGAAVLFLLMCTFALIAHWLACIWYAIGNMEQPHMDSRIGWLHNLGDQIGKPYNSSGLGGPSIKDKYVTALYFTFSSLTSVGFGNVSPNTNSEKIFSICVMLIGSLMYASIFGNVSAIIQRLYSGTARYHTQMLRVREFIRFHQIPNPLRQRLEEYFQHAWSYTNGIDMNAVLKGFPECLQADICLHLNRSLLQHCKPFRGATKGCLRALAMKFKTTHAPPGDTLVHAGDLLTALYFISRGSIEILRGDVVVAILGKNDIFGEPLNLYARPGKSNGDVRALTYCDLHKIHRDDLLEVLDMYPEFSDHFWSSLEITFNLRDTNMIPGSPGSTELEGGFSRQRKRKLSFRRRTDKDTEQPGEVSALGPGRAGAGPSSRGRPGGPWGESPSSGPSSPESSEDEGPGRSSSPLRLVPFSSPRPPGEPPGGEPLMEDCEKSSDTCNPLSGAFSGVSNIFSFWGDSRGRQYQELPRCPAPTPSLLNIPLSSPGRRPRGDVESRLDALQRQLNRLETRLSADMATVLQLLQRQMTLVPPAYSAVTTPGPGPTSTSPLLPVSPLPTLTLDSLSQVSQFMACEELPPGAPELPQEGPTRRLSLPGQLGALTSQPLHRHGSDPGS
Mouse Ghrelin Receptor (GHS-R 1A), sequence (Q99P50 whole entry): as the sequence (O08725 whole entry) above, with P30S, A249S counted along it

Regarding `COc1ccc(Cn2c(CCc3c[nH]c4ccccc34)nnc2[C@@H](Cc2ccc3ccccc3c2)NC(=O)OC(C)(C)C)cc1.O=C(O)C(F)(F)F` [Cpd 15, {(R)-1-[5-[2-(1H-Indol-3-yl)-ethyl]-4-(4-methoxy-benzyl)-4H-[1,2,4]triazol-3-yl]-2-naphthalen-2-yl-ethyl}-carbamic acid tert-butyl ester], the IC50 in [1] amounted to 24.9 nM; in data set [2], 39.9 nM; in data set [4], 16.5 nM. Also, the EC50 in [3] turned out to be 16300 nM. The “Stability in Liver Microsomes Rat % Remaining after 1 h Incubation” value in data set [5] is 37.8%.
As for `COc1ccc(Cn2c([C@@H](Cc3c[nH]c4ccccc34)NC(C)=O)nnc2[C@@H](Cc2c[nH]c3ccccc23)NC(=O)c2ccccn2)cc1.O=C(O)C(F)(F)F` [Cpd 3, Pyridine-2-carboxylic acid [(R)-1-[5-[(R)-1-acetylamino-2-(1H-indol-3-yl)-ethyl]-4-(4-methoxy-benzyl)-4H-[1,2,4]triazol-3-yl]-2-(1H-indol-3-yl)-ethyl]-amide], in data set [6], the “hERG Predictor EC50” value was “no inhibition”. For the same compound, the IC50 in data set [1] was 2.2 nM; in data set [2], 2.5 nM; in [4], 0.6 nM; in data set [9], 29.2 nM; in data set [10], 29.9 nM. Also, in data set [7], the Papp A→B at 2 h was 0.37 ± 0.02 ×10⁻⁶ cm/s. Also, the Papp B→A at 2 h in data set [7] was 17.2 ± 0.42 ×10⁻⁶ cm/s. Also, the efflux ratio at 2 h in data set [7] worked out at 51.9. The EC50 was determined as 38600 nM in data set [3]; 980 nM in data set [8] (marker substrate midazolam, 30 minutes preincubation with NADPH, read-out: CYP3A4 Inhibition Midazolam Preincubation EC50); 3200 nM in [8] (marker substrate midazolam, direct inhibition, human liver microsomes, read-out: CYP3A4 Inhibition Midazolam EC50). Besides, the “Stability in Liver Microsomes Rat % Remaining after 1 h Incubation” value in data set [5] is listed as 38.5%.
As to `COc1ccc(Cn2c([C@@H](Cc3c[nH]c4ccccc34)NC(C)=O)nnc2[C@@H](Cc2c[nH]c3ccccc23)NC(=O)C(C)(C)N)cc1.O=C(O)C(F)(F)F` [Cpd 8, N-[(R)-1-[5-[(R)-1-Acetylamino-2-(1H-indol-3-yl)-ethyl]-4-(4-methoxy-benzyl)-4H-[1,2,4]triazol-3-yl]-2-(1H-indol-3-yl)-ethyl]-2-amino-2-methyl-propionamide], in data set [6], the “hERG Predictor EC50” value was “no inhibition”. In addition, the IC50 in data set [1] stood at 22.4 nM; in data set [2], 19.1 nM; in data set [4] it was 1.4 nM; in data set [9] it was 363 nM; in [10] it was 1050 nM. The Papp A→B at 2 h in data set [7] is 0.08 ± 0.08 ×10⁻⁶ cm/s. The Papp B→A at 2 h in data set [7] worked out at 0.74 ± 0.03 ×10⁻⁶ cm/s. The efflux ratio at 2 h in data set [7] is 9.25. In addition, the EC50 in data set [3] is 196000 nM; in [8] (setting [11]), 900 nM; in data set [8] (setting [12]) it was 31200 nM. Moreover, the “Stability in Liver Microsomes Rat % Remaining after 1 h Incubation” value in [5] is on record as 64.3%.
Consider `COc1ccc(Cn2c([C@@H](Cc3ccccc3)NC(C)=O)nnc2[C@@H](Cc2c[nH]c3ccccc23)NC(=O)[C@@H]2CNCCO2)cc1.O=C(O)C(F)(F)F` [Cpd 7, (S)-Morpholine-2-carboxylic acid [(R)-1-[5-((R)-1-acetylamino-2-phenyl-ethyl)-4-(4-methoxy-benzyl)-4H-[1,2,4]triazol-3-yl]-2-(1H-indol-3-yl)-ethyl]-amide], for which the “hERG Predictor EC50” value in [6] is “no inhibition”. The IC50 is 9.5 nM in data set [1], 3.8 nM in [2] and 3.4 nM in [4]. Moreover, the figures for the EC50 in data set [3], in [8] (setting [11]) and in [8] (setting [12]) were 1080 nM, 1100 nM and 27000 nM, respectively. Also, in data set [5], the “Stability in Liver Microsomes Rat % Remaining after 1 h Incubation” value is listed as 82.7%.
Take `COc1ccc(Cn2c([C@@H](Cc3ccccc3)NC(C)=O)nnc2[C@@H](Cc2c[nH]c3ccccc23)NC(=O)CO)cc1.O=C(O)C(F)(F)F` [Cpd 6, N-[(R)-1-[5-((R)-1-Acetylamino-2-phenyl-ethyl)-4-(4-methoxy-benzyl)-4H-[1,2,4]triazol-3-yl]-2-(1H-indol-3-yl)-ethyl]-2-hydroxy-acetamide]: the “hERG Predictor EC50” value in [6] is recorded as “no inhibition”. For the same compound, the 50% inhibitory concentration (IC50) in data set [1] turned out to be 7.8 nM; in data set [2], 2.1 nM; in data set [4] it was 3 nM. The “Inhibition of MDR1 ATPase EC50” value in data set [3] is reported as “no inhibition”. For the same compound, the EC50 in [8] (setting [11]) worked out at 1400 nM; in [8] (setting [12]), 34300 nM. In addition, the “Stability in Liver Microsomes Rat % Remaining after 1 h Incubation” value in [5] came out at 27.1%.
For `COc1ccc(Cn2c([C@@H](Cc3c[nH]c4ccccc34)NC=O)nnc2[C@@H](Cc2c[nH]c3ccccc23)NC(=O)C(C)(C)N)cc1.O=C(O)C(F)(F)F` [Cpd 9, 2-Amino-N-[(R)-1-[5-[(R)-1-formylamino-2-(1H-indol-3-yl)-ethyl]-4-(4-methoxy-benzyl)-4H-[1,2,4]triazol-3-yl]-2-(1H-indol-3-yl)-ethyl]-2-methyl-propionamide], in [6], the “hERG Predictor EC50” value is recorded as “no full dose”. Moreover, the IC50 was determined as 58.6 nM in data set [1], 32.6 nM in data set [2] and 3.2 nM in [4]. Besides, the 50% effective concentration (EC50) was 836 nM in data set [3], 1500 nM in [8] (setting [11]) and 10000 to 30000 nM in data set [8] (setting [12]). In addition, in [5], the “Stability in Liver Microsomes Rat % Remaining after 1 h Incubation” value stood at 54.8%.
Consider `CCOC(=O)Cc1nnc([C@@H](Cc2c[nH]c3ccccc23)NC(=O)c2cccnc2)n1Cc1ccc(OC)cc1` [Cpd 1, [5-{(R)-2-(1H-Indol-3-yl)-1-[(pyridine-3-carbonyl)-amino]-ethyl}-4-(4-methoxy-benzyl)-4H-[1,2,4]triazol-3-yl]-acetic acid ethyl ester], for which the IC50 in [1] was 12.8 nM; in [2], 3 nM.
